The record followed here is patent US20230114241A1, “METHODS OF TREATING EPILEPSY USING THE SAME” (Trevena, Inc., priority 2019, published 2023).

The target of test [1] is T1, human sphingosine-1-phosphate receptor 1 (S1P1) (Homo sapiens, UniProt P21453). Nature of the test: Inhibition of cAMP production (HTRF cAMP HiRange), S1P1 CHO-K1 cells. The test is classed as cell-based. The settings on record: for Emax: CHO-K1, efficacy normalized to maximum efficacy of fingolimod, read-out: hS1P1 CAMP SPAN; for EC50: read-out: hS1P1 CAMP pEC50 (converted). The procedure, abridged: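 CHO-K1 cells co-expressing human S1P1 (C-terminal ProLink tag) and EA-β-arrestin2, plated overnight; after 30 min compound incubation at 37 °C, intracellular cAMP measured by HTRF TR-FRET following 1 h at room temperature. Values normalized to fingolimod.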
(cAMP levels reflect the balance of adenylyl cyclase and phosphodiesterase activity.)
Target sequence in this assay (P21453 whole entry): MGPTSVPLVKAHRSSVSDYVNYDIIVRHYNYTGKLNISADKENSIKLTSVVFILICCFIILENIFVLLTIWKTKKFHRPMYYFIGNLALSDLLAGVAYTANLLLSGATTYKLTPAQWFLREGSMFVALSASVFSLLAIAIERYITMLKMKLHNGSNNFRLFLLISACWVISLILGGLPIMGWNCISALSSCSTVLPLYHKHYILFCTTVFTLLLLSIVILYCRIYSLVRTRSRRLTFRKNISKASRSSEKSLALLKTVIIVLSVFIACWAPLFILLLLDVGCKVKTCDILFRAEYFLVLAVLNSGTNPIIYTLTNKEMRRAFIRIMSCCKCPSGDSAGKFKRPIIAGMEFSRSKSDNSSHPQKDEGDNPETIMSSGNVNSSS

In test [2] the target is T1, human sphingosine-1-phosphate receptor 1 (S1P1). Nature of the test: β-Arrestin2 recruitment assay (PathHunter), S1P1 CHO-K1 cells. Format: cell-based. The conditions noted are these: for Emax: efficacy normalized to maximum efficacy of fingolimod, read-out: hS1P1 B-arrestin2 SPAN; for EC50: β-arrestin2 recruitment, read-out: hS1P1 B-arrestin2 pEC50 (converted). In outline: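 CHO-K1 cells co-expressing EA-β-arrestin2 and ProLink-tagged human S1P1 plated overnight, then stimulated 60 min at 37 °C. Enzyme-fragment complementation (β-galactosidase) detected after 1 h at room temperature by luminescence; values normalized to fingolimod.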
Target sequence in this assay (P21453 whole entry): as above
Target sequence in this assay (P32121 whole entry partner): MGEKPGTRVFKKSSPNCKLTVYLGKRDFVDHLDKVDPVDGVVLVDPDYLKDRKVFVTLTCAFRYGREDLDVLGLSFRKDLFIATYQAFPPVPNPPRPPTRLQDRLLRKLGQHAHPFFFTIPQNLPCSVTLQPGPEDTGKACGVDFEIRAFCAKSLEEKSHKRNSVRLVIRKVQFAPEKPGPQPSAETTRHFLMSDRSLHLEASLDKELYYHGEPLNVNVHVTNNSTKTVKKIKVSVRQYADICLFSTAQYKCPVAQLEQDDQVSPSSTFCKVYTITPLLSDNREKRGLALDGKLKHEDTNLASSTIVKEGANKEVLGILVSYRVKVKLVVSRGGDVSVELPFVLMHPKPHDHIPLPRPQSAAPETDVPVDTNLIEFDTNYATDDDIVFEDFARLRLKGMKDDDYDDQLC
(In general: Recruitment of arrestin is a read-out of receptor activation apart from second messengers.)

Where [3] appears, read: inhibition of cAMP production, S1P1.
[4] abbreviates: inhibition of cAMP production, potency.
The mark [5] stands for this setting: CHO-K1, β-arrestin2 recruitment.

Turning to `N#Cc1cc(-c2nnc(-c3ccc4c(c3)CCC(=O)N4)o2)ccc1NCCF` [Compound 476, 2-[(2-fluoroethyl)amino]-5-[5-(2-oxo-1,2,3,4-tetrahydroquinolin-6-yl)-1,3,4-oxadiazol-2-yl]benzonitrile], the results for the Emax in test [1] and in test [2] (CHO-K1) were above 75% and below 75%, respectively. Moreover, the EC50 in test [1] (setting [3]) was below 0.316 µM; in test [2] (S1P1) it was below 10 µM.
The like results for `CCC1(CC)CC(=O)c2cc(-c3nc(-c4cc[nH]c4)no3)ccc2O1` [Compound 485, 6-(3-(1H-pyrrol-3-yl)-1,2,4-oxadiazol-5-yl)-2,2-diethylchroman-4-one] were, in that order, above 75%, above 75%, below 0.316 µM and above 10 µM.
As for `COC(=O)CCn1nnc2cc(-c3noc(-c4ccccc4Br)n3)ccc21` [Compound 161, methyl 3-(5-(5-(2-bromophenyl)-1,2,4-oxadiazol-3-yl)-1H-benzo[d][1,2,3]triazol-1-yl)propanoate], the values for the Emax in test [1] (inhibition of cAMP production) and in test [2] (setting [5]) were below 75% and above 75%, respectively. For the same compound, the EC50 in test [1] (setting [4]) was above 0.316 µM; in test [2] (potency) it was above 10 µM.
Turning to `COc1cccc(-c2csc(-c3ccc4c(ccn4C(C)C)c3)n2)c1` [Compound 405, 2-(1-isopropylindol-5-yl)-4-(3-methoxy-phenyl)thiazole], the Emax in test [1] and in test [2] (CHO-K1) was below 75% in each case. In addition, the EC50 was above 0.316 µM in test [1] (setting [3]) and above 10 µM in test [2] (S1P1).
Take `CC(C)Nc1ccc(-c2ncc(-c3ccc4[nH]c(=O)[nH]c4c3)cn2)cc1C#N` [Compound 628, 2-(isopropylamino)-5-(5-(2-oxo-2,3-dihydro-1H-benzo[d]imidazol-5-yl)pyrimidin-2-yl)benzonitrile]: the Emax is above 75% in test [1] and below 75% in test [2] (CHO-K1). For the same compound, the EC50 in test [1] (setting [3]) was below 0.316 µM; in test [2] (S1P1), below 10 µM.
Take `CCC1(CC)CC(=O)c2cc(-c3nc(-c4ccc(NS(C)(=O)=O)cc4OC)no3)ccc2O1` [Compound 568, N-{4-[5-(2,2-diethyl-4-oxo-3,4-dihydro-2H-1-benzopyran-6-yl)-1,2,4-oxadiazol-3-yl]-3-methoxyphenyl}methane-sulfonamide]: the Emax in test [1] and in test [2] (CHO-K1) was above 75% throughout. In addition, the EC50 is below 0.316 µM in test [1] (setting [3]) and below 10 µM in test [2] (S1P1).
Consider `CC(C)n1nnc2cc(-c3noc(-c4ccccc4Br)n3)ccc21` [Compound 43, 5-(2-bromophenyl)-3-(1-isopropyl-1H-benzo[d][1,2,3]triazol-5-yl)-1,2,4-oxadiazole], for which the Emax in test [1] (inhibition of cAMP production) and in test [2] (setting [5]) was above 75% each time. Besides, the EC50 is below 0.316 µM in test [1] (setting [4]) and below 10 µM in test [2] (potency).
Take `O=C1CNc2ccc(-c3nc(-c4cccnc4)no3)cc2N1` [Compound 629, 7-[3-(pyridin-3-yl)-1,2,4-oxadiazol-5-yl]-1,2,3,4-tetra-hydroquinoxalin-2-one]: the Emax was above 75% in test [1] and below 75% in test [2] (CHO-K1). The values for the EC50 in test [1] (setting [3]) and in test [2] (S1P1) were above 0.316 µM and above 10 µM, respectively.
As to `C=CCNc1ccc(-c2nc(-c3ccc4[nH]nnc4c3)no2)cc1C#N` [Compound 145, 5-(3-(1H-benzo[d] [1,2,3]triazol-5-yl)-1,2,4-oxadiazol-5-yl)-2-(allylamino)benzonitrile], the values for the Emax in test [1] (inhibition of cAMP production) and in test [2] (setting [5]) were above 75% and below 75%, respectively. Further, the results for the EC50 in test [1] (setting [4]) and in test [2] (potency) were below 0.316 µM and below 10 µM, respectively.
Take `CCCC1CC(=O)c2ccc(-c3nc(-c4cccnc4)no3)cc2O1` (stereo not shown) [Compound 630, 2-propyl-7-[3-(pyridin-3-yl)-1,2,4-oxadiazol-5-yl]-3,4-dihydro-2H-1-benzopyran-4-one]: the Emax in test [1] and in test [2] (CHO-K1) was below 75% each time. The figures for the EC50 in test [1] (setting [3]) and in test [2] (S1P1) were above 0.316 µM and above 10 µM, respectively.
